The target in one test is T1, JAK2 (Homo sapiens, UniProt O60674).
T1 construct: recombinant purified GST-tagged catalytic domain for each enzyme; purchased Invitrogen M4290
In words: Jak Biochemical HTRF Assay (JAK2). To be noted: recombinant purified GST-tagged catalytic domain, [ATP] 8.5 μM, values given as range classes. Put shortly:
(§1)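 GST-tagged recombinant catalytic domain and biotinylated peptide substrate were preincubated with compound for 30 min at room temperature in kinase buffer with 2 mM DTT and 0.05% BSA. ATP then started a 120 min reaction. Phosphopeptide was detected by HTRF (Eu-pY20/streptavidin-Dylight 650, 665/615 nm ratio), and IC50 came from a 4-parameter fit of percent inhibition.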

Another test addresses T2, JAK3 (Homo sapiens, UniProt P52333).
T2 construct: recombinant purified GST-tagged catalytic domain for each enzyme; purchased Invitrogen M4290
Briefly: Jak Biochemical HTRF Assay (JAK3). As to conditions: recombinant purified GST-tagged catalytic domain, [ATP] 2.9 μM, values given as range classes. Put shortly:
as §1

Broadly, the IC50 is the midpoint of a concentration-inhibition curve.

Structures are written as SMILES.

T1 sequence (O60674 849-1124 limits assumed): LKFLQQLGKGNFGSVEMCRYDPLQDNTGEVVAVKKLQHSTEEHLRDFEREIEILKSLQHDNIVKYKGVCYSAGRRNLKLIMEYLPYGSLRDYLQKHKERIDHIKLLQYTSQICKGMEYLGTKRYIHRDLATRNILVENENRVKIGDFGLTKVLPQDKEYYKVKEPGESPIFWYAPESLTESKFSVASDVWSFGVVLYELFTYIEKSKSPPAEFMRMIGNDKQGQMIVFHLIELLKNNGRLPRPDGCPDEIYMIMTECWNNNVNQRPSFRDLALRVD
T2 sequence (P52333 822-1111 limits assumed): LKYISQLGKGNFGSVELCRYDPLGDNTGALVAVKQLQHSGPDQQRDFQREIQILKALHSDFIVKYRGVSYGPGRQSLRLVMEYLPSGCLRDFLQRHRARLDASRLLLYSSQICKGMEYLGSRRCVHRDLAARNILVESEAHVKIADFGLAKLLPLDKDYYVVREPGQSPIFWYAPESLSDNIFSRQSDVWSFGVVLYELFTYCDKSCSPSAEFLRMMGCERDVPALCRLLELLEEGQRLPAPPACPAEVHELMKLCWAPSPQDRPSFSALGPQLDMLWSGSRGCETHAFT

Take `CC(=O)Nc1cnc2[nH]cc(-c3cncc(N[C@H](C(=O)NCC(F)(F)F)C(C)C)c3)c2c1` [Example 5-2, N^2-{5-[5-(acetylamino)-1H-pyrrolo[2,3-b]pyridin-3-yl]pyridin-3-yl}-N-(2,2,2-trifluoroethyl)valinamide]: the IC50 is 10 to 500 nM at JAK2 and no more than 10 nM at JAK3.
The like results for `C[C@@H](Nc1cnnc(-c2c[nH]c3ncc(C(N)=O)cc23)n1)C(=O)NCC(F)(F)F` [Example 1-14, 3-[5-({(1R)-1-methyl-2-oxo-2-[(2,2,2-trifluoroethyl)amino]ethyl}amino)-1,2,4-triazin-3-yl]-1H-pyrrolo[2,3-b]pyridine-5-carboxamide] were, in that order, 10 to 500 nM and no more than 10 nM.
Turning to `CC(C)C(Nc1cncc(-c2c[nH]c3ncc(C(N)=O)cc23)c1)C(=O)NCC(F)(F)F` (stereo not shown) [Example 1-42, 3-[5-({2-methyl-1-[(2,2,2-trifluoroethyl)carbamoyl]propyl}amino)pridin-3-yl]-1H-pyrrolo[2,3-b]pyridine-5-carboxamide], the IC50 is 10 to 500 nM on JAK2 and no more than 10 nM on JAK3.
For `N#Cc1cnc2[nH]cc(-c3cncc(N[C@@H]4CCCC[C@@H]4C(=O)NCC(F)(F)F)c3)c2c1` [Example 1-38, (1S,2R)-2-{[5-(5-cyano-1H-pyrrolo[2,3-b]pyridin-3-yl)pyridin-3-yl]amino}-N-(2,2,2-trifluoroethyl)cyclohexane-carboxamide], the IC50 on JAK2 is 10 to 500 nM; at JAK3, no more than 10 nM.
Take `CC(C)(Nc1cncc(-c2c[nH]c3ncc(C(N)=O)cc23)c1)C(=O)NCC(F)(F)F` [Example 1-47, 3-[5-({1,1-dimethyl-2-oxo-2-[(2,2,2-trifluoroethyl)amino]ethyl}amino)pyridin-3-yl]-1H-pyrrolo[2,3-b]pyridine-5-carboxamide]: the IC50 was 10 to 500 nM on JAK2 and no more than 10 nM on JAK3.
Turning to `CNC(=O)c1cnc2[nH]cc(-c3cncc(N[C@@H](C(=O)NCC(F)(F)F)C(C)C)c3)c2c1` [Example 3-8, N-methyl-3-[5-({(1R)-2-methyl-1-[(2,2,2-trifluoroethyl)carbamoyl]propyl}amino)pyridin-3-yl]-1H-pyrrolo[2,3-b]pyridine-5-carboxamide], the values for the IC50 at JAK2 and on JAK3 were 10 to 500 nM and no more than 10 nM, respectively.
Taken in the same sequence, the figures for `COc1cnc2[nH]cc(-c3cncc(N[C@H](C(=O)NCC(F)(F)F)C(C)C)c3)c2c1` [Example 1-45, N~2~-[5-(5-methoxy-1H-pyrrolo[2,3-b]pyridin-3-yl)pyridin-3-yl]-N-(2,2,2-trifluoroethyl)valinamide] were 10 to 500 nM and no more than 10 nM.
On to `CC(C)C(Nc1cncc(-c2c[nH]c3ncc(NC(=O)N[C@@H](C)C(=O)O)cc23)c1)C(=O)NCC(F)(F)F` (stereo partly shown) [Example 6-4, N-({3-[5-({2-methyl-1-[(2,2,2-trifluoroethyl)carbamoyl]propyl}amino)pyridin-3-yl]-1H-pyrrolo[2,3-b]pyridin-5-yl}carbamoyl)alanine], for which the IC50 at JAK2 is 10 to 500 nM; at JAK3 it was no more than 10 nM.
Taken in the same sequence, the figures for `CC(C)[C@H](Nc1cncc(-c2c[nH]c3ncc(CNC(=O)CC(F)(F)F)cc23)c1)C(=O)NCC(F)(F)F` [Example 10-10, N-(2,2,2-trifluoroethyl)-N~2~-[5-(5-{[(3,3,3-trifluoropropanoyl)amino]methyl}-1H-pyrrolo[2,3-b]pyridin-3-yl)pyridin-3-yl]valinamide] were greater than 500 nM and 10 to 500 nM.
Taken in the same sequence, the figures for `CC(C)[C@@H](Nc1cncc(-c2c[nH]c3ncc(-c4cnn(C)c4)cc23)c1)C(=O)NCC(F)(F)F` [Example 8-3, N^2-{5-[5-(1-methyl-1H-pyrazol-4-yl)-1H-pyrrolo[2,3-b]pyridin-3-yl]pyridin-3-yl}-N-(2,2,2-trifluoroethyl)-D-valinamide] were no more than 10 nM and no more than 10 nM.
The like results for `CC(C)[C@H](Nc1cncc(-c2c[nH]c3ncc(N)cc23)c1)C(=O)NCC(F)(F)F` [Example 5-1, N^2-[5-(5-amino-1H-pyrrolo[2,3-b]pyridin-3-yl)pyridin-3-yl]-N-(2,2,2-trifluoroethyl)valinamide] were, in that order, 10 to 500 nM and 10 to 500 nM.

Source of the values: US9096598B2 (Merck Sharp & Dohme Corp., priority 2011, dated 2015).
